Key:
Type in all cases: biochemical
[1] = target: Human recombinant HDAC4 (Homo sapiens (Human), UniProt P56524); test: Test 2: HDAC4 assay (fluorogenic substrate, 5 μM acetyl-Gly-Ala-Lys(ε-trifluoroacetyl)-AMC); details: Test 2 (values without asterisk)
Procedure: Test 2: HDAC4 Assay Description
(§1) Control wells with HDAC4 only (positive control) and without HDAC4 (negative control) were included on the microplate. Bovine trypsin (4.5 μl of a 300 nM solution) was added and the plate incubated for additional 15 minutes at room temperature. The plate was placed in a fluorescence microplate reader, and read at an excitation wavelength of 360 nm and an emission wavelength of 450 nm with a 10 nm bandpath. Fluorescence values for all wells containing HDAC4 (positive control and wells with test compound) were corrected by subtracting negative control fluorescence values, and IC50 values were calculated by fitting the dose-response curves to a 4-parameter logistic function.

[2] = target: Human recombinant full length HDAC1 (Homo sapiens (Human), UniProt Q13547); test: Test 3: HDAC1 assay; details: substrate 5 μM acetyl-Gly-Ala-Lys(acetyl)-AMC
Human recombinant full length HDAC1, sequence (Q13547 whole entry): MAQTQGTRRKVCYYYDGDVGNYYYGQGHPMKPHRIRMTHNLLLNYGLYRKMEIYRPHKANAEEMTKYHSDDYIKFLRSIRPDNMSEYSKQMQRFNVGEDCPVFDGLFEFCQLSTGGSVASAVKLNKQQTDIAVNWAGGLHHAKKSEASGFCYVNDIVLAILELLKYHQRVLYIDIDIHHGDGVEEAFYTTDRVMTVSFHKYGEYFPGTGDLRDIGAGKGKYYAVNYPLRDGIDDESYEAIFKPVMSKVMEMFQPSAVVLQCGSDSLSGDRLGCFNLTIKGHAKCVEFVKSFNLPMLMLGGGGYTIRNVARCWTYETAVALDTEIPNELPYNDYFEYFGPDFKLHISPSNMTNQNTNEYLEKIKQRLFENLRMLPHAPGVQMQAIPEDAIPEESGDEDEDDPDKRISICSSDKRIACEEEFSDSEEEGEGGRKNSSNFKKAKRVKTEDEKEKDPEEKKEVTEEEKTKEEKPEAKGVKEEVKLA
Procedure: as §1
Test 3: HDAC1 Assay Description
A similar assay procedure as described in Test 2 was used for HDAC1. Human recombinant full length HDAC1 expressed in a baculovirus expression system was purchased from BPS BioSciences (San Diego, Calif., U.S.A.). The substrate used in the […] assay was 5 μM of acetyl-Gly-Ala-Lys(acetyl)-AMC.

[3] = target: Human recombinant full length HDAC6 (Homo sapiens (Human), UniProt Q9UBN7); test: Test 4: HDAC6 assay; details: Test 4; substrate 5 μM acetyl-Gly-Ala-Lys(acetyl)-AMC
Human recombinant full length HDAC6, sequence (Q9UBN7 whole entry): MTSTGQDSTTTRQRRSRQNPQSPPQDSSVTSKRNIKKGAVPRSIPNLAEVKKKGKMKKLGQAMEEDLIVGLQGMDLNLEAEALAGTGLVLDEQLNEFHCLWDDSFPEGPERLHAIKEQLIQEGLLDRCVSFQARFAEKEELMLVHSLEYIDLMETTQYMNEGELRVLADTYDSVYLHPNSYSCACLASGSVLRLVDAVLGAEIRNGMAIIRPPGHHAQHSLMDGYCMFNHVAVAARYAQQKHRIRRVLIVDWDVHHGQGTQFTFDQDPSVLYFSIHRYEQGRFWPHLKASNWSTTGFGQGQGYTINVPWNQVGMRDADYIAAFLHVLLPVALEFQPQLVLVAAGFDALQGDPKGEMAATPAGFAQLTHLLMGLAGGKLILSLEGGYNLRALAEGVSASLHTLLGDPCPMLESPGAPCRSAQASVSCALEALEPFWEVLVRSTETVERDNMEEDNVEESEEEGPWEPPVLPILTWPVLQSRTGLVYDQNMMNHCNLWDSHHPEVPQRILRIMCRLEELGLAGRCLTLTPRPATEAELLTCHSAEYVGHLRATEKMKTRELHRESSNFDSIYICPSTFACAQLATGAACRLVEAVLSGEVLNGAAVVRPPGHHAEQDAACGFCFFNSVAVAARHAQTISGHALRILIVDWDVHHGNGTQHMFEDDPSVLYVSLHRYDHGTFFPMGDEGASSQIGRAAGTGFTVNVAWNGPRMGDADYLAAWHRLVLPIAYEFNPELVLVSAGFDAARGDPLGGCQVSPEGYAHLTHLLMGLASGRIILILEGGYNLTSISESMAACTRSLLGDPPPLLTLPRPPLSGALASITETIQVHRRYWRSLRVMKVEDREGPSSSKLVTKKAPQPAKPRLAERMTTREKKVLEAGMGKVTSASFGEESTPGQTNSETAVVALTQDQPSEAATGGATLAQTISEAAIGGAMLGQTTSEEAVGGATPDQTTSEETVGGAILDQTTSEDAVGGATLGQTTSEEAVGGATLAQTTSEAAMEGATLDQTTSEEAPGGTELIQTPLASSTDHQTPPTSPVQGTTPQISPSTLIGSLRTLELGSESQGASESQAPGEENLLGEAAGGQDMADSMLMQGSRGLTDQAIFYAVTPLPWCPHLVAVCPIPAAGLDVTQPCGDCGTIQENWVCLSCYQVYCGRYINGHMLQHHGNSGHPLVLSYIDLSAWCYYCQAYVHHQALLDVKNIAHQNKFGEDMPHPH
Procedure: as §1
Test 4: HDAC6 Assay Description
A similar assay procedure as described in Test 2 was used for HDAC6. Human recombinant full length HDAC6 expressed in a baculovirus expression system was purchased from BPS BioSciences (San Diego, Calif., U.S.A.). The substrate used in the […] assay was 5 μM of acetyl-Gly-Ala-Lys(acetyl)-AMC.

Human recombinant HDAC4, sequence (P56524 2-1084): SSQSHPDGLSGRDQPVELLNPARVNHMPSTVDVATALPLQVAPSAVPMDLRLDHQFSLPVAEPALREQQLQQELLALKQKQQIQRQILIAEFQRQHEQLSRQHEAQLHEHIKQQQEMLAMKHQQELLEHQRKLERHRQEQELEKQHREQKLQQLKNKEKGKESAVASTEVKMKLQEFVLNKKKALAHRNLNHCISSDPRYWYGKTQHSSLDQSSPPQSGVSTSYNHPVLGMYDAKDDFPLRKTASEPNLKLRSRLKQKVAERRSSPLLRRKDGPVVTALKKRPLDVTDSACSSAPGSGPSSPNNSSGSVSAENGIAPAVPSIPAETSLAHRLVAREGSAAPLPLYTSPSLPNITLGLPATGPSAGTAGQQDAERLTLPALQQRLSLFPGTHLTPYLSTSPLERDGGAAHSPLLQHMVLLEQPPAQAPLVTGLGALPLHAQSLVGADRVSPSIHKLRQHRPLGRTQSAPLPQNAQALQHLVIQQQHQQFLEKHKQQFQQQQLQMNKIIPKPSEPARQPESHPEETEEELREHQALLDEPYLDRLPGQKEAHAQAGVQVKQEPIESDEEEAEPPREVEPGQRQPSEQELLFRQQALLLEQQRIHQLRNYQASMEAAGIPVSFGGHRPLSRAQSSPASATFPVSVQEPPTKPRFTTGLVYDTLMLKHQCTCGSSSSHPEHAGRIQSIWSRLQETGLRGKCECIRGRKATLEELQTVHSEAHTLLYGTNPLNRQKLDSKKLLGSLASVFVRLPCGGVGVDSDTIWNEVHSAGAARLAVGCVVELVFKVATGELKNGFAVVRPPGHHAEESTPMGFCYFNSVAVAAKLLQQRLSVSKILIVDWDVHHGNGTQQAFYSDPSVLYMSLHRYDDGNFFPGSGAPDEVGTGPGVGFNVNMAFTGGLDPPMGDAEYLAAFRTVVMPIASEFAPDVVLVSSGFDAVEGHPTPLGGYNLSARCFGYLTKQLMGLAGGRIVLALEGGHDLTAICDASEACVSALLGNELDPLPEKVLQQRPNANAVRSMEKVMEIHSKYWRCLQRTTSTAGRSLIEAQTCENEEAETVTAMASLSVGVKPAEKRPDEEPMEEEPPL

Row | Structure (SMILES) | IC50 [1] [µM] | IC50 [2] [µM] | IC50 [3] [µM]
1 | CN1CCN(C(=O)c2ccc(-c3noc(C(F)(F)F)n3)cc2)CC1 [Example 36, (4-methylpiperazin-1-yl)(4-(5-(trifluoromethyl)-1,2,4-oxadiazol-3-yl)phenvyl)methanone] | 2.7 | > 10 | > 10
2 | CN(C)CCN(C)C(=O)c1ccc(-c2noc(C(F)(F)F)n2)cc1 [Example 37, N-(2-(dimethylamino)ethyl)-N-methyl-4-(5-(trifluoromethyl)-1,2,4-oxadiazol-3-yl)benzamide] | 0.34 | > 10 | > 10
3 | CN1CCC(NC(=O)c2ccc(-c3noc(C(F)(F)F)n3)cc2)CC1 [Example 38, N-(1-methylpiperidin-4-yl)-4-(5-(trifluoromethyl)-1,2,4-oxadiazol-3-yl)benzamide] | 0.3 | > 10 | 3.9
4 | CN(C)C1CCN(C(=O)c2ccc(-c3noc(C(F)(F)F)n3)cc2)CC1 [Example 39, (4-(dimethylamino)piperidin-1-yl)(4-(5-(trifluoromethyl)-1,2,4-oxadiazol-3-yl)phenyl)methanone] | 1.2 | > 10 | > 10
5 | O=C(NCCCn1ccnc1)c1ccc(-c2noc(C(F)(F)F)n2)cc1 [Example 40, N-(3-(1 H-imidazol-1-yl)propyl)-4-(5-(trifluoromethyl)-1,2,4-oxadiazol-3-yl)benzamide] | 0.46 | > 10 | 4.6
6 | O=C(c1ccc(-c2noc(C(F)(F)F)n2)cc1)N1CCN(c2ccccc2)CC1 [Example 42, (4-phenylpiperazin-1-yl)(4-(5-(trifluoromethyl)-1,2,4-oxadiazol-3-yl)phenyl)methanone] | 4.2 | > 10 | > 10
7 | O=C(c1ccc(-c2noc(C(F)(F)F)n2)cc1)N1CCC(Cc2ccccc2)CC1 [Example 43, (4-benzylpiperidin-1-yl)(4-(5-(trifluoromethyl)-1,2,4-oxadiazol-3-yl)phenvyl)methanone] | 0.29 | > 10 | > 10
8 | O=C(NCc1ccc(CN2CCOCC2)cc1)c1ccc(-c2noc(C(F)(F)F)n2)cc1 [Example 44, N-(4-(morpholinomethyl)benzyl)-4-(5-(trifluoromethyl)-1,2,4-oxadiazol-3-yl)benzamide] | 0.38 | > 10 | 5.7
9 | O=C(NCCc1ccccc1)c1ccc(-c2noc(C(F)(F)F)n2)cc1 [Example 45, N-phenethyl-4-(5-(trifluoromethyl)-1,2,4-oxadiazol-3-yl)benzamide] | 4.2 | > 10 | > 10
10 | O=C(NCc1ccccc1)c1ccc(-c2noc(C(F)(F)F)n2)cc1 [Example 46, N-benzyl-4-(5-(trifluoromethyl)-1,2,4-oxadiazol-3-yl)benzamide] | 0.78 | > 10 | 3.3
11 | O=C(Nc1ccncc1)c1ccc(-c2noc(C(F)(F)F)n2)cc1 [Example 47, N-(ppyridin-4-yl)-4-(5-(trifluoromethyl)-1,2,4-oxadiazol-3-yl)benzamide] | 0.054 | > 10 | 2.1
12 | O=C(Nc1cccnc1)c1ccc(-c2noc(C(F)(F)F)n2)cc1 [Example 48, N-(ppyridin-3-yl)-4-(5-(trifluoromethyl)-1,2,4-oxadiazol-3-yl)benzamide] | 0.14 | > 10 | 4.8
13 | CN1CCC(CNC(=O)c2ccc(-c3noc(C(F)(F)F)n3)cc2)CC1 [Example 49, N-((1-methylpiperidin-4-yl)methyl)-4-(5-(trifluoromethyl)-1,2,4-oxadiazol-3-yl)benzamide] | 0.99 | > 10 | > 10
14 | C[C@@H](CO)NC(=O)c1ccc(-c2noc(C(F)(F)F)n2)cc1 [Example 50, (S)—N-(1-hydroxyypropan-2-yl)-4-(5-(trifluoromethyl)-1,2,4-oxadiazol-3-yl)benzamide] | 0.62 | > 10 | 7.2
15 | CC(CNC(=O)c1ccc(-c2noc(C(F)(F)F)n2)cc1)N(C)C (stereo not drawn) [Example 51, N-(2-(dimethylamino)propyl)-4-(5-(trifluoromethyl)-1,2,4-oxadiazol-3-yl)benzamide] | 0.09 | > 10 | 10
16 | CN(C)C(=O)CNC(=O)c1ccc(-c2noc(C(F)(F)F)n2)cc1 [Example 52, N-(2-(dimethylamino)-2-oxoethyl)-4-(5-(trifluoromethyl)-1,2,4-oxadiazol-3-yl)benzamide] | 3.2 | > 10 | > 10
17 | CC(CN(C)C)NC(=O)c1ccc(-c2noc(C(F)(F)F)n2)cc1 (stereo not drawn) [Example 53, N-(1-(dimethylamino)propan-2-yl)-4-(5-(trifluoromethyl)-1,2,4-oxadiazol-3-yl)benzamide] | 0.026 | > 10 | > 10
18 | O=C(c1ccc(-c2noc(C(F)(F)F)n2)cc1)N1CCC(O)C1 (stereo not drawn) [Example 54, (3-hydroxypyrrolidin-1-yl)(4-(5-(trifluoromethyl)-1,2,4-oxadiazol-3-yl)phenvyl)methanone] | 2 | > 10 | > 10
19 | CC(C)(C)OC(=O)N1CCN(C(=O)c2ccc(-c3noc(C(F)(F)F)n3)cc2)CC1 [Example 55, Tert-butyl 4-(4-(5-(trifluoromethyl)-1,2,4-oxadiazol-3-yl)benzoyl)piperazine-1-carboxylate] | 2.8 | > 10 | > 10
20 | CCC(CO)NC(=O)c1ccc(-c2noc(C(F)(F)F)n2)cc1 (stereo not drawn) [Example 56, N-(1-tetrahydroxy-2 H-butan-2-yl)-4-(5-(trifluoromethyl)-1,2,4-oxadiazol-3-yl)benzamide] | 0.55 | > 10 | 6.8
21 | O=C(NC1CCOCC1)c1ccc(-c2noc(C(F)(F)F)n2)cc1 [Example 57, N-(tetrahydro-2H-pyran-4-yl)-4-(5-(trifluoromethyl)-1,2,4-oxadiazol-3-yl)benzamide] | 0.52 | > 10 | 6.5
22 | CC(C)CC(CO)NC(=O)c1ccc(-c2noc(C(F)(F)F)n2)cc1 (stereo not drawn) [Example 58, N-(1-hydroxy-4-methylpentan-2-yl)-4-(5-(trifluoromethyl)-1,2,4-oxadiazol-3-yl)benzamide] | 0.65 | > 10 | 5.5
23 | CC(C)(C)OC(=O)N1CCC(NC(=O)c2ccc(-c3noc(C(F)(F)F)n3)cc2)CC1 [Example 59, 4-[4-(5-trifluoromethyl-[1,2,4]oxadiazol-3-yl)-benzoylamino]-piperidine-1-carboxylic acid tert-butyl ester] | 1.4 | > 10 | > 10
24 | CC(C)(C)OC(=O)NC1CCCCC1NC(=O)c1ccc(-c2noc(C(F)(F)F)n2)cc1 (stereo not drawn) [Example 60, tert-butyl (2-(4-(5-(trifluoromethyl)-1,2,4-oxadiazol-3-yl)benzamido)cyclohexyl)carbamate] | 2.5 | > 10 | 2.2
25 | O=C(NC1CCCCC1O)c1ccc(-c2noc(C(F)(F)F)n2)cc1 (stereo not drawn) [Example 61, N-(2-hydroxycyclohexyl)-4-(5-(trifluoromethyl)-1,2,4-oxadiazol-3-yl)benzamide] | 0.79 | > 10 | 7.1
26 | CNC(=O)CNC(=O)c1ccc(-c2noc(C(F)(F)F)n2)cc1 [Example 63, N-(2-(methylamino)-2-oxoethyl)-4-(5-(trifluoromethyl)-1,2,4-oxadiazol-3-yl)benzamide] | 0.78 | > 10 | > 10
27 | CC(=O)N1CCC(NC(=O)c2ccc(-c3noc(C(F)(F)F)n3)cc2)CC1 [Example 64, N-(1-acetylpiperidin-4-yl)-4-(5-(trifluoromethyl)-1,2,4-oxadiazol-3-yl)benzamide] | 0.51 | > 10 | > 10
28 | CN1C(C)(C)CC(NC(=O)c2ccc(-c3noc(C(F)(F)F)n3)cc2)CC1(C)C [Example 65, N-(1,2,2,6,6-pentamethylpiperidin-4-yl)-4-(5-(trifluoromethyl)-1,2,4-oxadiazol-3-yl)benzamide] | 0.24 | > 10 | 4.6
29 | CC(C)(C)OC(=O)N1CCC(NC(=O)c2ccc(-c3noc(C(F)(F)F)n3)cc2)C1 (stereo not drawn) [Example 66, Tert-butyl 3-(4-(5-(trifluoromethyl)-1,2,4-oxadiazol-3-yl)benzamido)pyrrolidine-1-carboxylate] | 0.33 | > 10 | 5.8
30 | COc1cc(NC(=O)c2ccc(-c3noc(C(F)(F)F)n3)cc2)ccn1 [Example 67, N-(2-methoxypyridin-4-yl)-4-(5-(trifluoromethyl)-1,2,4-oxadiazol-3-yl)benzamide] | 0.16 | > 10 | 8.3

Reference: patent US9056843B2, “Trifluoromethyl-oxadiazole derivatives and their use in the treatment of disease” (NOVARTIS AG, priority 2011, dated 2015)
